{"source": "patent US20220241229A1", "about": "“Methods and Compositions for Altering Senescence Associated Secretory Phenotype” (BUCK INSTITUTE FOR RESEARCH ON AGING, priority 2019, published 2022)", "key": {"[1]": {"assay": "Body weight and food consumption", "assay_type": "in vivo, mice", "excerpt": "(§1) The principle endpoint of health span and lifespan study was natural death or mice found dead at daily inspection or age at euthanasia (for mice deemed unlikely to survive for next 48 hr and are in enormous discomfort). The criteria for euthanasia were based on an independent assessment by a veterinarian, according to AAALAC guidelines and only where the condition of the animal was considered. Severe lethargy, rapid weight loss (over two weeks>20%), severe distended abdomen and body condition score with signs of pain (grimace), inability to move despite the stimuli, severe ulcer or bleeding tumor, sever temperature loss with abnormal breathing rate. Animal found dead or euthanized was necropsied for pathology score. No invasive measurements were performed on this population, n=180 animals (two cohorts of 90 animals). A sacrificed group were purchased at 14 months of age, baselined and grouped the following week. […] Animals were sacrificed and tissues were collected after 3 months of treatment. Food intake and body weight were measured on a biweekly and bimonthly basis for the duration of the study.\nMetabolism was measured applying indirect calorimetry. Promethion metabolic cage system-Sable Systems International was used."}, "[2]": {"tested_on": "inflammatory cytokines and chemokines", "assay": "Inflammatory cytokines and chemokines in serum (multiplex bead array)", "assay_type": "in vivo, mice", "conditions": "for Levels of 30 inflammatory cytokines and chemokines: aged female mice (29 month old) vs. aged control and young", "procedure": "The samples were measured for soluble cytokines and chemokines in serum using multiplex bead array technology (MD31)."}, "[3]": {"tested_on": "senescence-associated secretory phenotype (SASP) genes", "assay": "qRT-PCR of SASP genes in irradiated IMR-90 fibroblasts", "assay_type": "cell-based", "conditions": "10 Gy ionizing radiation; 1 mM for 10 days", "experimental": "For damage-induced senescence, cells were irradiated with doses of either 0 or 10 Gy of ionizing radiation (IR). Cells were concurrently treated with PBS (control) or 1 mM AKG for 10 days, changing media every 2 days. All assays were performed 10 days post irradiation.\nRNA quality and quantity were assessed using NanoDrop™ 1000 spectrophotometer measures (Thermo Scientific). Total cDNAs were synthesized from 500 ng of RNA using random primers and iScript RT reagents following the manufacturer's protocol Superscript II (Invitrogen, Carlsbad, USA). Gene expression was measured from cDNA using the Roche Universal Probe Library system (Indianapolis, Ind., USA). All values were normalized to beta-actin."}, "C57BL6/J mice [4]": {"tested_on": "C57BL6/J mice", "conditions": "for Incidence and severity of aging phenotypes / morbidity (total frailty score): female and male, Cohort-1, 2% w/w diet from 18 months; for Age-related changes in female coat color / hair discoloration: female mice; for Severity of individual frailty phenotypes: grimace, poor coat condition, gait disorder", "excerpt": "For the subjective properties of the assessments, all measurements were completely blinded. These assessments indicate age-associated deterioration of health and include evaluation of the animal musculoskeletal system, the vestibulocochlear/auditory systems, the ocular and nasal systems, the digestive system, the urogenital system, the respiratory system, signs of discomfort, body weight and body surface temperature. 0 is assigned if no sign of frailty is observed and the animal is healthy for that phenotype. A moderate phenotype and a severe phenotype is scored 0.5 and 1 respectively. Loss of temperature and weight were scored using standard deviation for the study (Table 2). All the phenotypes were scored as described before by Whitehead, J. C., et al., except for temperature and weight. Temperature and weights scoring: Briefly, for weight and temperature, the new scaling scores were used; Average and standard deviations (STDEV) were calculated sex specifically using our own baseline data sets (data collected before the start of the treatment mice at 18th month age). A decrease in temperature or weight (FIG. 3B, and FIG. 3D) within one STDEV is scored as a (0), a decrease bigger than one STDEV but smaller than 2 STDEV will be scored as a (0.5) and any decrease more than 2 STDEV is scored as a (1).\n(§2) Python Software was used to extract all the health span data and create files compatible with R software for analysis. Data were analyzed using R, GraphPad Prism 7 and OASIS 2 software. Log-rank (Mantel-Cox) tests were used to analyze Kaplan-Meier curves, and a fisher's exact test was performed for maximum lifespan analysis (at 90% survival). […] Two-way analysis of variance (ANOVA) with Bonferroni post hoc correction was used for analysis between morbidity curves. The area under curve (AUC) of […] graphs were measured baselining at 18 months of age. The changes in AUC were used to calculate the percent compression of morbidity.\nIn order to assess healthspan, measurements were applied that are based on a clinically relevant frailty index. The frailty index (FI) consists of 31 phenotypes that are indicators of age-associated health deterioration, with each phenotype scored on a 0, 0.5 or 1 scale, based on its severity. Body weight and surface temperature were collected and converted to the same scoring scales (Table 2). All scorings were conducted in a blinded manner.\nThe 31-metrics share many characteristics of the human frailty indices and has been reported to progress similarly with aging in mice and humans. Measurements were repeated approximately every eight weeks, providing us with eight and seven sets of data respectively for male and female groups. To establish a baseline clinical assessment, a dataset was collected right before the start of the treatment at 18th months (FIG. 4A-FIG. 4D).\nSince the age for onset of age-related phenotypes can be quite heterogeneous in mammals, frailty datasets were plotted not only as a function of chronological time, but also in proportion to the lifespan of each mouse by binning scores within ten percentile (e.g. scores collected between 60% and 70% of the animals' lifespans were binned and plotted at 65%), (FIG. 9A-FIG. 9B). This further aligns assessments with respect to the biologic age of the animal."}, "IMR-90 fibroblasts": {"tested_on": "IMR-90 fibroblasts", "assay": "Senescence formation in irradiated IMR-90 fibroblasts (SA-β-gal, EdU)", "assay_type": "cell-based", "conditions": "10 Gy ionizing radiation; 1 mM for 10 days", "experimental": "IMR-90 fetal lung fibroblasts were obtained from ATCC and were cultured at 37° C. in 3% O2 and 5% CO2. Dulbecco's modified Eagle's media (DMEM) supplemented with 10% fetal bovine serum and streptomycin/penicillin were used. Media was changed every 2 days during the experiment. For damage-induced senescence, cells were irradiated with doses of either 0 or 10 Gy of ionizing radiation (IR). Cells were concurrently treated with PBS (control) or 1 mM AKG for 10 days, changing media every 2 days. All assays were performed 10 days post irradiation.\nCells were stained for the senescence-associated 3-gal (SA-3-gal) marker as described. Non-senescent cells (having undergone fewer than 35 population doublings) were made quiescent by washing with PBS and incubating in DMEM containing 0.2% serum for 4 day. Cultures that had >80% SA-3-gal positive cells and ≤4% EdU positive cells were considered senescent."}, "C57BL6/J mice [5]": {"tested_on": "C57BL6/J mice", "conditions": "Cohort-1, 2% w/w AKG diet from 18 months of age", "excerpt": "as §1, §2"}, "C57BL6/J mice [6]": {"tested_on": "C57BL6/J mice", "conditions": "treated group vs. control", "procedure": "Metabolism was measured applying indirect calorimetry. Promethion metabolic cage system-Sable Systems International was used. The system is equipped with GA-3 small mammal gas analyzers for measurements of O2 (consumption) and CO2 (production). Energy expenditure, food intake, water consumption, body weight, physical activity and volunteer exercise were simultaneously recorded over 4 consecutive days (96 hours). Mice were housed individually in metabolic cages and accustomed to their environment a day before the start of recording. Data were analyzed using Sable System Expedata-P Data Analysis Software. Subsequently, CalR software, a free web tool was used for analysis of experiments using indirect calorimetry, to analyze the raw data, generate some plots and run statistical analysis."}, "[7]": {"conditions": "aged mice (29 months old) vs. young and aged control"}}, "note": "“Also recorded” adds a separate entry of the source. Read-outs that look alike come from different tables or passages of the source.", "data": [{"compound": "O=C(O)CCC(=O)C(=O)O", "note": "[AKG, 2-oxopentanedioic acid]", "values": [{"measurement": "Body weight preservation (age-related weight loss)", "setting": "[1]; male mice, second cohort, P value<0.001", "result": "preserves body weight; also recorded: better body weight preservation"}, {"measurement": "Food consumption", "setting": "[1]; measured for 3 consecutive days at 19, 23 and 28 months, AKG fed vs. control", "result": "no significance change"}, {"measurement": "Levels of 30 inflammatory cytokines and chemokines", "setting": "[2]", "result": "general trend of reduction"}, {"measurement": "Level of IL-3", "setting": "[2]; [7]", "result": "do not show an increase"}, {"measurement": "Level of IL-7", "setting": "[2]; [7]", "result": "do not show an increase"}, {"measurement": "Level of MIP-1β", "setting": "[2]; [7]", "result": "do not show an increase"}, {"measurement": "Level of TNFα", "setting": "[2]; [7]", "result": "do not show an increase"}, {"measurement": "Range of inflammatory cytokines (proinflammatory SASP)", "setting": "[3]", "result": "lowers the proinflammatory SASP"}, {"measurement": "Compression of morbidity (proportion of life frail)", "setting": "C57BL6/J mice [4]; both sexes, total frailty scores vs. percentage of lifespan", "result": "compresses the morbidity risk into fewer days of life; also recorded: decreases the proportion of life in which the animal is frail"}, {"measurement": "Incidence and severity of aging phenotypes / morbidity (total frailty score)", "setting": "C57BL6/J mice [4]", "result": "extends healthspan and alleviates age-associated frailty"}, {"measurement": "Age-related changes in female coat color / hair discoloration", "setting": "C57BL6/J mice [4]", "result": "prevents age-associated hair discoloration"}, {"measurement": "Senescence formation / senescence growth arrest", "setting": "IMR-90 fibroblasts", "result": "without preventing the senescence growth arrest"}, {"measurement": "Age (days) at 100%", "setting": "C57BL6/J mice [5]; female", "result": 1116, "unit": "days"}, {"measurement": "Age (days) at 100%", "setting": "C57BL6/J mice [5]; male & female", "result": 1173, "unit": "days"}, {"measurement": "Age (days) at 100%", "setting": "C57BL6/J mice [5]; male", "result": 1173, "unit": "days"}]}, {"compound": "O=C([O-])CCC(=O)C(=O)[O-].[Ca+2]", "note": "[CaAKG, Calcium alpha-ketoglutarate]", "values": [{"measurement": "Levels of 30 inflammatory cytokines and chemokines", "setting": "[2]", "result": "largely refractory to these changes"}, {"measurement": "Level of IL-3", "setting": "[2]; [7]", "result": "significant changes"}, {"measurement": "Incidence and severity of aging phenotypes / morbidity (total frailty score)", "setting": "C57BL6/J mice [4]", "result": "decreases incidence and severity of different aging phenotypes and postpones morbidity"}, {"measurement": "Age-related changes in female coat color / hair discoloration", "setting": "C57BL6/J mice [4]", "result": "protection from age-related changes in female coat color was particularly prominent"}, {"measurement": "Total frailty score, health improvement vs. control", "setting": "C57BL6/J mice [4]; female, P<0.001, P<0.05", "result": "significant improvements after 9 months of treatment and again at 11 months post treatment"}, {"measurement": "Gait", "setting": "C57BL6/J mice [4]; females and males close to median life", "result": "Gait improvement"}, {"measurement": "Severity of individual frailty phenotypes", "setting": "C57BL6/J mice [4]; females: piloerection, alopecia, loss of fur color, grip strength loss, rectal prolapse, body weight loss", "result": "significantly decreased"}, {"measurement": "Total frailty score, health improvement vs. control", "setting": "C57BL6/J mice [4]; male, persisted until last measurement at 33 months of age, P<0.01, P<0.05", "result": "significant health improvement after 11 months"}, {"measurement": "Severity of individual frailty phenotypes", "setting": "C57BL6/J mice [4]; males: grip strength loss, vestibular disturbance, loss of menace reflex, hearing loss, eye discharge, poor body condition, tail stiffening, abnormal breathing rate", "result": "significantly decreased the severity of multiple aging phenotypes"}, {"measurement": "Level of carbon dioxide production", "setting": "C57BL6/J mice [6]", "result": "significantly lower"}, {"measurement": "Level of energy expenditure", "setting": "C57BL6/J mice [6]", "result": "significantly lower"}, {"measurement": "Level of oxygen consumption", "setting": "C57BL6/J mice [6]", "result": "significantly lower"}]}]}
